Test results published in ChEMBL document CHEMBL1135617, “Dicarboxylic acid bis(L-prolyl-pyrrolidine) amides as prolyl oligopeptidase inhibitors” (J Med Chem, 2002).
Values belong to the compound of their own block, whether it stands above or below them.

What was measured:
Prolyl endopeptidase [1] = target: T1, Prolyl endopeptidase (Sus scrofa, UniProt P23687); assay: In vitro inhibitory activity against prolyl oligopeptidase (POP) from pig brain; value ranges from (7800-54000)
Prolyl endopeptidase [2] = target: T1, Prolyl endopeptidase
Prolyl endopeptidase [3] = target: T1, Prolyl endopeptidase; assay: In vitro inhibitory activity against prolyl oligopeptidase (POP) from pig brain; value ranges from (72-92)
Prolyl endopeptidase [4] = target: T1, Prolyl endopeptidase; assay: In vitro inhibitory activity against prolyl oligopeptidase (POP) from pig brain; value ranges from (38-110)
Prolyl endopeptidase [5] = target: T1, Prolyl endopeptidase; assay: In vitro inhibitory activity against prolyl oligopeptidase (POP) from pig brain; value ranges from (59 - 100)
Prolyl endopeptidase [6] = target: T1, Prolyl endopeptidase; assay: In vitro inhibitory activity against prolyl oligopeptidase (POP) from pig brain; value ranges from (44-110)

T1 sequence (P23687 whole entry): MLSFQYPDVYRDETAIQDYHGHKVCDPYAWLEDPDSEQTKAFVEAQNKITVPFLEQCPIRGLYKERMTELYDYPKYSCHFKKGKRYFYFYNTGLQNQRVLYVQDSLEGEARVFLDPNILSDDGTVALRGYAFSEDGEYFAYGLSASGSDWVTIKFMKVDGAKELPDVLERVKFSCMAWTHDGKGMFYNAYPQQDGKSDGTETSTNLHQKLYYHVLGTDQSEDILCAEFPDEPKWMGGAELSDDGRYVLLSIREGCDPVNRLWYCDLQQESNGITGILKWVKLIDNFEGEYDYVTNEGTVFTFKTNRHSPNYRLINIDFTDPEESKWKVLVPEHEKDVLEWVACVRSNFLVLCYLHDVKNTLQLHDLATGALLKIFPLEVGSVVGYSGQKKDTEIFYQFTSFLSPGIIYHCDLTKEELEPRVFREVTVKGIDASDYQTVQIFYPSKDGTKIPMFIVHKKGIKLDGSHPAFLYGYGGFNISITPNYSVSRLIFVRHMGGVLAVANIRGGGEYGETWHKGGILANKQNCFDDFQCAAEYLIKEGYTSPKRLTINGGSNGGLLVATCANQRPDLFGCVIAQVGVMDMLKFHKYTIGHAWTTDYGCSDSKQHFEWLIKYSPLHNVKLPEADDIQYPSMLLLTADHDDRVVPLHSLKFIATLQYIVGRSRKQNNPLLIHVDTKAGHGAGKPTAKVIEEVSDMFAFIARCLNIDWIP

Structure (SMILES): O=C(C1CCCN1C(=O)c1ccccc1C(=O)N1CCC[C@H]1C(=O)N1CCCC1)N1CCCC1 (stereo partly specified)
- IC50 (Prolyl endopeptidase [1]): 21000 nM

Structure (SMILES): O=C(CO)[C@@H]1CCCN1C(=O)[C@@H]1CCCN1C(=O)c1cccc(C(=O)N2CCCC2C(=O)N2CCCC2)c1 (stereo partly specified)
- IC50 (Prolyl endopeptidase [2]): 0.39 nM

Structure (SMILES): O=C([C@@H]1CCCN1C(=O)c1ccccc1)N1CCCC1
- IC50 (Prolyl endopeptidase [4]): 66 nM

The next lines start with the values.

- IC50 (Prolyl endopeptidase [3]): 81 nM
Structure (SMILES): O=C(C1CCCN1C(=O)c1ccc(C(=O)N2CCC[C@H]2C(=O)N2CCCC2)cc1)N1CCCC1 (stereo partly specified)

- IC50 (Prolyl endopeptidase [5]): 77 nM
Structure (SMILES): O=C(C1CCCN1C(=O)CCC(=O)N1CCC[C@H]1C(=O)N1CCCC1)N1CCCC1 (stereo partly specified)

- IC50 (Prolyl endopeptidase [6]): 68 nM
Structure (SMILES): O=C(C1CCCN1C(=O)CCCCC(=O)N1CCC[C@H]1C(=O)N1CCCC1)N1CCCC1 (stereo partly specified)
